Reference: PMC12337130 (Nature microbiology, 2025)

B1: GST-vBcl-2 (1–146) with N67D/V117A (domain or fragment)
chain: MDEDVLPGEVLAIEGIFMACGLNEPEYLYHPLLSPIKLYITGLMRDKESLFEAMLANVRFHSTTGIDQLGLSMLQVSGDGNMNWGRALAILTFGSFVAQKLSNEPHLRDFALAVLPAYAYEAIGPQWFRARGGWRGLKAYCTQVLT

What was measured:
vBcl-2 = vBcl-2 (Human gammaherpesvirus 8, UniProt Q76RI8, N67D/V117A); test: surface plasmon resonance; assay type: binding
vBcl-2–NM23-H2 complex = vBcl-2–NM23-H2 complex (Human gammaherpesvirus 8, UniProt Q76RI8, N67D/V117A); test: HTRF protein-protein interaction assay; assay type: binding
His-NM23-H2 = His-NM23-H2 (human, UniProt P22392 1-152); test: AlphaScreen or HTRF
[1] = molecular target: B1; test: AlphaScreen or HTRF

Cc1nc(Nc2nc3ccccc3o2)[nH]c(=O)c1C [VBNI-1, 2-(Benzo[d]oxazol-2-ylamino)-5,6-dimethylpyrimidin-4(3H)-one]
Kd (vBcl-2): 875 nM
IC50 (vBcl-2–NM23-H2 complex): ~64 nM

B1
binding result (His-NM23-H2): binds

EDIIRNIARHLAQVGDSMDR [BID BH3 peptide]
binding result [1]: binds
